Consider nine compounds from patent US20250206751A1, “HETEROCYCLIC COMPOUND FOR INDUCING DEGRADATION OF G12D MUTANT KRAS PROTEIN” (Astellas Pharma Inc., priority 2022, published 2025).

One experiment addresses T1, KRAS G12D protein (Homo sapiens, UniProt P01116, G12D).
T1 construct: host or cells: AsPC-1
Description: KRAS degradation activity by Cell ELISA in AsPC-1 (Test Example 1). It is filed as cell-based. The note with it: AsPC-1 cells, cultured overnight with compound, corrected with β-actin, read-out: DC50 (50% degradation concentration of the amounts of KRAS). As to the method:
Test Example 1: Evaluation of KRAS Degradation Activity on Human G12D Mutant KRAS-Positive Pancreatic Cancer Line AsPC-1 (CRL-1682; ATCC)
The KRAS degradation activity of test compounds was evaluated by measuring the expression levels of KRAS G12D protein by Cell ELISA.
AsPC-1 cells were seeded at 20 μL per well on 384-well plates (from Greiner bio-one) to give 2.0×10^4 cells per well. As for the cell culture conditions, RPMI 1640 (from Sigma-Aldrich) medium containing 10% fetal bovine serum (from Cytiva) was used in the presence of 5% CO2 at 37° C.
The next day, the test compounds (10 points having final concentrations in the range of 10 μM to 0.3 nM) and DMSO (from FUJIFILM Wako Pure Chemical Corporation), which was the solvent for the test compounds, as a negative control were diluted 500-fold with a fresh medium and were added at 20 μL per well. The cells were cultured overnight.
The next day, the culture supernatant was removed, and 4% paraformaldehyde phosphate buffer (from FUJIFILM Wako Pure Chemical Corporation) was added at 20 μL per well. The plates were allowed to stand for 30 minutes at room temperature to thus immobilize the cells. Then, the supernatant was removed, and 0.1% Triton X-100 (from Amersham Biosciences)-containing Phosphate buffered saline (PBS; from FUJIFILM Wako Pure Chemical Corporation) was added at 20 μL per well. After allowing to stand for 10 minutes at room temperature, the supernatant was removed. PBS was added at 25 μL per well, and the supernatant was removed to thus wash each well. The washing was performed twice in total. Next, the supernatant was removed, and 0.5% sodium dodecyl sulfate (SDS; from Invitrogen)-containing PBS was added at 20 μL per well. After allowing to stand at room temperature for 10 minutes, the supernatant was removed by a centrifugal operation (using a centrifugal dehydrator machine, the supernatant was removed by the same method hereinafter). PBS was added at 25 μL per well, and the supernatant was removed to thus wash each well. The washing was performed twice in total. The supernatant was removed, and blocking solution (Intercept Blocking Buffer; from Li-COR Biosciences) was added at 20 μL per well. After allowing to stand for 30 minutes at room temperature, the supernatant was removed, and a solution obtained by diluting anti-β-actin antibody (Anti-beta Actin antibody [mAbcam 8226]-Loading Control; from abcam) 1,000-fold with blocking solution and a solution obtained by diluting anti-Ras (G12D Mutant Specific) antibody (Ras (G12D Mutant Specific) (D8H7) Rabbit mAb #14429; from Cell Signaling Technology) and anti-β-actin antibody (from abcam) 1,000-fold with blocking solution were respectively added to positive control wells and the other wells at 20 μL per well as a primary antibody. The plate was allowed to stand overnight at 4° C.
The next day, the supernatant was removed. PBS was added at 25 μL per well, and the supernatant was removed to thus wash each well. The washing was performed twice in total. The supernatant was removed, and a solution obtained by diluting Donkey anti-Mouse IgG H&L (IRDye 680RD) (from Li-COR Biosciences) and Goat anti-Rabbit IgG H&L (IRDye 800CW) (from Li-COR Biosciences) 1,000-fold with blocking solution was added at 20 μL per well as a secondary antibody. After allowing to stand for 1 hour at room temperature, the supernatant was removed. PBS was added at 25 μL per well, and the supernatant was removed to thus wash each well. The washing was performed twice in total. After removing the supernatant, the plate was dried with air at room temperature for 2 hours or more, and the 700 nm and 800 nm fluorescent signals were measured with Aerius (from Li-COR Biosciences). […]
Background: An ELISA detects its analyte on a solid surface through an enzyme-linked reagent.

Experiment [1] concerns phosphorylation of threonine 202 (Thr202) and tyrosine 204 (Tyr204) of ERK. Description: ERK phosphorylation inhibitory effect by Cell ELISA in AsPC-1 (Test Example 2). It is filed as cell-based, human. Conditions: Homo sapiens, ASPC1, AsPC-1 cells, cultured overnight with compound; 1 μM trametinib taken as 0%. As to the method: Test Example 2: Evaluation of ERK Phosphorylation Inhibitory Effect on Human G12D Mutant KRAS-Positive Pancreatic Cancer Line AsPC-1
The ERK phosphorylation inhibitory effect of test compounds was evaluated by measuring phosphorylation of threonine 202 (Thr202) and tyrosine 204 (Tyr204) of ERK located downstream of the KRAS signal by Cell ELISA.
AsPC-1 cells were seeded on 384-well plates at 36 μL/well to give 2.0×10^4 cells per well. As for the cell culture conditions, RPMI 1640 medium containing 10% fetal bovine serum was used in the presence of 5% CO2 at 37° C.
The next day, the test compounds (10 points having final concentrations in the range of 10 μM to 0.3 nM), trametinib (MEK inhibitor) of a final concentration of 1 μM as positive control and DMSO, which was the solvent for the test compounds, as negative control were diluted 100-fold with a fresh medium and were added at 4 μL per well. The cells were cultured overnight. After culturing, 30% glyoxal solution (40% glyoxal [from Nacalai Tesque] was diluted with PBS) was quickly added at 30 μL per well, and the plate was allowed to stand for 60 minutes at room temperature to thus immobilize the cells. Then, the plate was centrifuged to remove the supernatant (using a centrifugal dehydrator machine, the supernatant was removed by the same method hereinafter), and 0.1% Triton X-100-containing PBS was added at 20 μL per well. After allowing to stand for 10 minutes at room temperature, the supernatant was removed, and the same operation was further repeated. Next, 0.5% SDS-containing PBS was added at 20 μL per well, and after allowing to stand at room temperature for 30 minutes, the supernatant was removed. Subsequently, blocking solution (Intercept Blocking Buffer) was added at 20 μL per well, and the plate was allowed to stand for 1 hour at room temperature. The supernatant was removed, and an ERK (Thr202/Tyr204) phosphorylation antibody (Phospho-p44/42 MAPK (Erk 1/2) (Thr202/Tyr204) (D13.14.4E) XP Rabbit mAb; from Cell Signaling Technology) diluted 2,500-fold with blocking solution was added at 15 μL per well as a primary antibody. The plates were allowed to stand at 4° C. overnight.
The next day, the supernatant was removed. 0.05% Tween-20 (from Thermo Fisher Scientific)-containing PBS was added at 50 μL per well, and the supernatant was removed to thus wash each well. The washing was performed three times in total. After washing, Goat anti-Rabbit IgG H&L (IRDye 800CW) diluted 1,000-fold with blocking solution was added at 15 μL per well as a secondary antibody, and the plates were allowed to stand for 1 hour at room temperature. The supernatant was removed, and each well was washed three times with 0.05% Tween-20-containing PBS in the same manner as after the primary antibody reaction. After removing the supernatant, the plates were dried with air at room temperature for 3 hours or more, and the 800-nm fluorescent signals were measured with Aerius.
With the signaling value at the time of addition of DMSO taken as 100% and with the signaling value at the time of addition of 1 μM trametinib taken as 0%, the 50% inhibitory concentration values (IC50) were calculated by Sigmoid-Emax nonlinear regression analysis.

For experiment [2], the system named is human G12D mutant KRAS-positive pancreatic cancer line AsPC-1. Briefly: Non-anchorage-dependent cell growth inhibition, spheroid 3D cell culture (Test Example 3). The format is cell-based. Conditions: Homo sapiens, ASPC1, 144 h, AsPC-1 spheroid 3D culture, 6 days, CellTiter Glo 2.0. As to the method:
Test Example 3: Evaluation of Non-Anchorage-Dependent Cell Growth Inhibitory Effect on Human G12D Mutant KRAS-Positive Pancreatic Cancer Line AsPC-1
The non-anchorage-dependent cell growth inhibitory effect of test compounds was evaluated by spheroid 3D cell culture.
AsPC-1 cells were seeded on low-cell-adhesive round bottom 384-well plates (PrimeSurface: from Sumitomo Bakelite) at 36 μL/well to give 5×10^2 cells per well. As for the cell culture conditions, RPMI 1640 medium containing 10% fetal bovine serum was used in the presence of 5% CO2 at 37° C.
The next day, the test compounds (10 or 6 points having final concentrations in the range of 10 μM to 0.3 nM) and DMSO, which was the solvent for the test compounds, as a negative control were diluted 100-fold with a fresh medium and were added at 4 μL per well. After culturing in the presence of 5% CO2 at 37° C. for 6 days, CellTiter Glo 2.0 (from Promega) was added at 20 μL per well. After stirring with a plate mixer (from FINEPCR) at room temperature for 1 hour, the luminescent signals were measured with ARVO X3 (from PerkinElmer).
With the signaling value in treatment with DMSO taken as 100% and with the signaling value in the medium alone without cells taken as 0%, the 50% inhibitory concentration values (IC50) were calculated by Sigmoid-Emax nonlinear regression analysis.
On the technique in general: In ATP-based viability assays light output follows the ATP content of the culture.

SMILES strings stand for the structures.

T1 sequence (P01116 1-188 isoform P01116-2 G12D): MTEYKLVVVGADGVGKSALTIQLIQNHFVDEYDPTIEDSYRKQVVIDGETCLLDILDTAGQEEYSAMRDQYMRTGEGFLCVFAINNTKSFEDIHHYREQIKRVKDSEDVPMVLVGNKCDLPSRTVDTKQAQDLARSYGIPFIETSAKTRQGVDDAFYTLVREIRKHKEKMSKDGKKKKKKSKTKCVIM

With `Cc1ncsc1-c1ccc([C@H](CO)NC(=O)[C@@H]2C[C@@H](O)CN2C(=O)[C@H](C(C)C)n2cc(-c3ccc(COc4c(-c5c(C)c(F)cc6[nH]ncc56)c(C5CC5)cc5c(O[C@H]6CCNC6)nc(OC6CCOCC6)nc45)cc3)nn2)cc1` (atropisomer, axis not shown) [Example 1], the DC50 at KRAS G12D protein was found to be 13 nM. For the same compound, the IC50 (usually the concentration that inhibits the measured activity by half) came out at 7 nM in experiment [1] and 9 nM in experiment [2].
For the compound `Cc1ncsc1-c1ccc([C@H](CO)NC(=O)[C@@H]2C[C@@H](O)CN2C(=O)[C@H](C(C)C)n2cc(-c3ccc(COc4c(-c5c(C)c(F)cc6[nH]ncc56)c(C5CC5)cc5c(N[C@H]6CCNC6)nc(OC6CCOCC6)nc45)cc3)nn2)cc1` (atropisomer, axis not shown) [Example 3], the DC50 on KRAS G12D protein is 47 nM. Moreover, the IC50 turned out to be 16 nM in experiment [1] and 7 nM in experiment [2].
With `CO[C@@H](C)COc1nc(O[C@H]2CCNC2)c2cc(C3CC3)c(-c3c(C)c(F)cc4[nH]ncc34)c(OCc3ccc(-c4cn([C@H](C(=O)N5C[C@H](O)C[C@H]5C(=O)N[C@@H](CO)c5ccc(-c6scnc6C)cc5)C(C)C)nn4)cc3)c2n1` (atropisomer, axis not shown) [Example 5], on KRAS G12D protein, the DC50 stood at 9 nM. Besides, the IC50 in experiment [1] was 12 nM; in experiment [2], 10 nM.
Regarding `CO[C@@H](C)COc1nc(N[C@H]2CCNC2)c2cc(C3CC3)c(-c3c(C)c(F)cc4[nH]ncc34)c(OCc3ccc(-c4cn([C@H](C(=O)N5C[C@H](O)C[C@H]5C(=O)N[C@@H](CO)c5ccc(-c6scnc6C)cc5)C(C)C)nn4)cc3)c2n1` (atropisomer, axis not shown) [Example 6], on KRAS G12D protein, the DC50 stood at 24 nM. Besides, the IC50 turned out to be 5 nM in experiment [1] and 8 nM in experiment [2].
Taken in the same sequence, the figures for `Cc1ncsc1-c1ccc([C@H](CO)NC(=O)[C@@H]2C[C@@H](O)CN2C(=O)[C@H](C(C)C)n2cc(-c3ccc(COc4c(-c5c(C)c(F)cc6[nH]ncc56)c(C5CC5)cc5c(N[C@@H]6CNC[C@@H]6O)nc(OC6CCOCC6)nc45)cc3)nn2)cc1` (atropisomer, axis not shown) [Example 7] were 40 nM, 9 nM and 23 nM.
`Cc1ncsc1-c1ccc([C@H](CO)NC(=O)[C@@H]2C[C@@H](O)CN2C(=O)[C@H](C(C)C)n2cc(-c3ccc(COc4c(-c5c(C)c(F)cc6[nH]ncc56)c(C5CC5)cc5c(N(C)[C@H]6CCNC6)nc(OC6CCOCC6)nc45)cc3)nn2)cc1` (atropisomer, axis not shown) [Example 8]: on KRAS G12D protein, the DC50 is 18 nM. The IC50 in experiment [1] was 20 nM; in experiment [2], 16 nM.
For `CO[C@@H](C)COc1nc(N(C)[C@H]2CCNC2)c2cc(C3CC3)c(-c3c(C)c(F)cc4[nH]ncc34)c(OCc3ccc(-c4cn([C@H](C(=O)N5C[C@H](O)C[C@H]5C(=O)N[C@@H](CO)c5ccc(F)cc5)C(C)C)nn4)cc3)c2n1` (atropisomer, axis not shown) [Example 12], the DC50 at KRAS G12D protein is 61 nM. In addition, the IC50 in experiment [1] came to 42 nM; in experiment [2], 41 nM.
As for `CO[C@@H](C)COc1nc(N(C)[C@H]2CCNC2)c2cc(C3CC3)c(-c3c(C)c(F)cc4[nH]ncc34)c(OCc3ccc(-c4cn([C@H](C(=O)N5C[C@H](O)C[C@H]5C(=O)N[C@@H](CO)c5ccc(-c6ocnc6C)cc5)C(C)C)nn4)cc3)c2n1` (atropisomer, axis not shown) [Example 14], the DC50 at KRAS G12D protein came out at 20 nM. Moreover, the IC50 in experiment [1] and in experiment [2] was 4 nM in each case.
With `Cc1ncsc1-c1ccc([C@H](CO)NC(=O)[C@@H]2C[C@@H](O)CN2C(=O)[C@H](C(C)C)n2cc(-c3ccc(COc4c(-c5c(C)c(F)cc6[nH]ncc56)c(C5CC5)nc5c(N6C[C@@H]7C[C@H]6CN7)nc(OC6CCOCC6)nc45)cc3)nn2)cc1` [Example 57, (4R)-1-[(2S)-2-(4-{4-[({6-cyclopropyl-4-[(1S,4S)-2,5-diazabicyclo[2.2.1]heptan-2-yl]-7-(6-fluoro-5-methyl-1H-indazol-4-yl)-2-[(oxan-4-yl)oxy]pyrido[3,2-d]pyrimidin-8-yl}oxy)methyl]phenyl}-1H-1,2,3-triazol-1-yl)-3-methylbutanoyl]-4-hydroxy-N-{(1R)-2-hydroxy-1-[4-(4-methyl-1,3-thiazol-5-yl)phenyl]ethyl}-L-prolinamide], the IC50 in experiment [2] came to 95 nM.
